Measurements from patent US7378446B2, “Compound having anti-HCV activity and process for producing the same” (Chugai Seiyaku Kabushiki Kaisha, priority 2003, dated 2008).

Assays:
[1] = test system: Firefly luciferase HCV replicon cells (3-1); assay: Replicon assay (firefly luciferase HCV replicon); type: cell-based; details: Hepatitis C virus, 72 h; Huh7-derived luciferase HCV replicon cells, 3 days culture with compound, Steady-Glo luminescence
Method: (§1) A construct was prepared in which a luciferase gene derived from firefly was introduced as a reporter gene in HCV-RNA to assay the number of copies of HCV-RNA. The luciferase gene was introduced in the form of fusing with neomycin-resistance gene directly below the IRES (Internal Ribosome Entry Site) of the HCV gene in accordance with the method of Krieger, et al. (J. Virol. 75:4614). After synthesizing this RNA in vitro, it was introduced into Huh7 cell by electroporation and isolated as G418-resistant clone. Firefly luciferase HCV replicon cells (3-1) were suspended in Dulbecco's MEM (Gibco cat. no. 10569-010) containing 5% fetal bovine serum (Hyclone cat. no. SH30071.03), inoculated into the wells of a 96-well plate at 5000 cells/well and then cultured overnight at 37° C. and 5% CO2. Approximately 20 hours later, the diluted test compound was added at 10 μl per well followed by culturing for another 3 days. Two series of assay plates were prepared, and the assay was carried out using a white plate for one series and a clear plate for the other series. Following completion of culturing, the white plate was used for the Steady-Glo Luciferase Assay System (Promega cat. no. E2520). Namely, after adding 100 μl of reagent per well, mixing by a pipette 3 to 4 times and then allowing to stand for 5 minutes, luminescence was measured with the 1450 MicroBeta TRILUX (Wallac). Values obtained in the absence of cell addition were used as background values and subtracted from all values to calculate the IC50 (50% inhibitory concentration) of the drug based on a value of 0% inhibition for the value in the absence of addition of test compound.

in vitro = type: cell-based; details: human; replicon cells, 3 days culture with compound, Cell Counting Kit 8, absorbance 450 nm; read-out: Cytotoxicity CC50
Method: as §1
The Cell Counting Kit 8 (Dojindo cat. no. CK04) was used to determine the cytotoxicity. Namely, 10 μl of Cell Counting Kit 8 were added to a clear plate and incubated for 30 to 60 minutes at 37° C. Absorbance at a wavelength of 450 nm and a control wavelength of 630 nm was measured with a 96-well plate reader. Values in the absence of cell addition were used as background values and subtracted from all values to calculate the CC50 (50% cell inhibitory concentration) of the drug based on a value of 0% inhibition for the value in the absence of addition of drug.

SMILES | IC50 [1] | CC50 (in vitro)
CCCCCCCC(=O)CCCCCC/C=C/[C@H](C(=O)N[C@@H](Cc1ccc(Oc2cccc(C)c2)cc1)C(=O)O)[C@@](O)(CC(=O)O)C(=O)O [Compound 56] | 6 nM | > 1000 nM
CCCCCCCC(=O)CCCCCC/C=C/[C@H](C(=O)N[C@@H](Cc1ccc(Oc2cccc(C(F)(F)F)c2)cc1)C(=O)O)[C@@](O)(CC(=O)O)C(=O)O [Compound 57] | 11 nM | > 1000 nM
CCCCCCCC(=O)CCCCCC/C=C/[C@H](C(=O)N[C@@H](Cc1ccc(-c2ccc(OC)cc2)cc1)C(=O)O)[C@@](O)(CC(=O)O)C(=O)O [Compound 58] | 4 nM | > 1000 nM
CCCCCCCC(=O)CCCCCC/C=C/[C@H](C(=O)N[C@@H](Cc1ccc(-c2ccc(C)cc2)cc1)C(=O)O)[C@@](O)(CC(=O)O)C(=O)O [Compound 59] | 3 nM | > 1000 nM
CCCCCCCC(=O)CCCCCC/C=C/[C@H](C(=O)N[C@@H](Cc1ccc(-c2ccc(C(F)(F)F)cc2)cc1)C(=O)O)[C@@](O)(CC(=O)O)C(=O)O [Compound 60] | 8 nM | > 1000 nM
CCCCCCCC(=O)CCCCCC/C=C/[C@H](C(=O)N[C@@H](Cc1ccc(-c2cccc(C)c2)cc1)C(=O)O)[C@@](O)(CC(=O)O)C(=O)O [Compound 61] | 6 nM | > 1000 nM
CCCCCCCC(=O)CCCCCC/C=C/[C@H](C(=O)N[C@@H](Cc1ccc(-c2cccc(OC)c2)cc1)C(=O)O)[C@@](O)(CC(=O)O)C(=O)O [Compound 62] | 2 nM | > 1000 nM
CCCCCCCC(=O)CCCCCC/C=C/[C@H](C(=O)N[C@@H](Cc1ccc(-c2cccc(C(F)(F)F)c2)cc1)C(=O)O)[C@@](O)(CC(=O)O)C(=O)O [Compound 63] | 10 nM | > 1000 nM
CCCCCCCC(=O)CCCCCC/C=C/[C@H](C(=O)N[C@@H](Cc1ccc(Oc2cccc(F)c2)cc1)C(=O)O)[C@@](O)(CC(=O)O)C(=O)O [Compound 64] | 7 nM | > 1000 nM
CCCCCCCC(=O)CCCCCC/C=C/[C@H](C(=O)N[C@@H](Cc1ccc(-c2ccccc2F)cc1)C(=O)O)[C@@](O)(CC(=O)O)C(=O)O [Compound 65] | 2 nM | > 1000 nM
CCCCCCCC(=O)CCCCCC/C=C/[C@H](C(=O)N[C@@H](Cc1ccc(-c2cccc(F)c2)cc1)C(=O)O)[C@@](O)(CC(=O)O)C(=O)O [Compound 66] | 6 nM | > 1000 nM
CCCCCCCC(=O)CCCCCC/C=C/[C@H](C(=O)N[C@@H](Cc1ccc(Oc2ccc(N(C)C)cc2)cc1)C(=O)O)[C@@](O)(CC(=O)O)C(=O)O [Compound 67] | 4 nM | > 1000 nM
CCCCCCCC(=O)CCCCCC/C=C/[C@H](C(=O)N[C@@H](Cc1ccc(-c2ccc(N(C)C)cc2)cc1)C(=O)O)[C@@](O)(CC(=O)O)C(=O)O [Compound 68] | 2 nM | > 1000 nM
CCCCCCCC(=O)CCCCCC/C=C/[C@H](C(=O)N[C@@H](Cc1ccc(Nc2ccccc2)cc1)C(=O)O)[C@@](O)(CC(=O)O)C(=O)O [Compound 69] | 2 nM | > 1000 nM
CCCCCCCC(=O)CCCCCC/C=C/[C@H](C(=O)N[C@@H](Cc1ccc(Oc2ccc(C#N)cc2)cc1)C(=O)O)[C@@](O)(CC(=O)O)C(=O)O [Compound 70] | 11 nM | > 1000 nM
CCCCCCCC(=O)CCCCCC/C=C/[C@H](C(=O)N[C@@H](Cc1ccc(-c2ccc(C#N)cc2)cc1)C(=O)O)[C@@](O)(CC(=O)O)C(=O)O [Compound 71] | 4 nM | > 1000 nM
CCCCCCCC(=O)CCCCCC/C=C/[C@H](C(=O)N[C@@H](Cc1ccc(N2CCOCC2)cc1)C(=O)O)[C@@](O)(CC(=O)O)C(=O)O [Compound 72] | 6 nM | > 1000 nM
CCCCCCCC(=O)CCCCCC/C=C/[C@H](C(=O)N[C@@H](Cc1ccc(-c2ccc(OC)nc2)cc1)C(=O)O)[C@@](O)(CC(=O)O)C(=O)O [Compound 73] | 2 nM | > 1000 nM
CCCCCCCC(=O)CCCCCC/C=C/[C@H](C(=O)N[C@@H](Cc1ccc(-c2ccc(S(=O)(=O)N(C)C)cc2)cc1)C(=O)O)[C@@](O)(CC(=O)O)C(=O)O [Compound 74] | 135 nM | > 1000 nM
CCCCCCCC(=O)CCCCCC/C=C/[C@H](C(=O)N[C@@H](Cc1ccc(N(C)c2ccccc2)cc1)C(=O)O)[C@@](O)(CC(=O)O)C(=O)O [Compound 75] | 6 nM | > 1000 nM

SMILES | IC50 [1] | CC50 (in vitro)
CCCCCCCC(=O)CCCCCC/C=C/[C@H](C(=O)N[C@@H](Cc1ccc(-c2cncnc2)cc1)C(=O)O)[C@@](O)(CC(=O)O)C(=O)O [Compound 76] | 13 nM | > 1000 nM
CCCCCCCC(=O)CCCCCC/C=C/[C@H](C(=O)N[C@@H](Cc1ccc(-c2ccc(SC)cc2)cc1)C(=O)O)[C@@](O)(CC(=O)O)C(=O)O [Compound 77] | 7 nM | > 1000 nM
CCCCCCCC(=O)CCCCCC/C=C/[C@H](C(=O)N[C@@H](Cc1ccc(-c2cncc(OC)c2)cc1)C(=O)O)[C@@](O)(CC(=O)O)C(=O)O [Compound 78] | 3 nM | > 1000 nM
CCCCCCCC(=O)CCCCCC/C=C/[C@H](C(=O)N[C@@H](Cc1ccc(-c2c(C)noc2C)cc1)C(=O)O)[C@@](O)(CC(=O)O)C(=O)O [Compound 79] | 104 nM | > 1000 nM
CCCCCCCC(=O)CCCCCC/C=C/[C@H](C(=O)N[C@@H](Cc1ccc(-c2ccc(S(C)(=O)=O)cc2)cc1)C(=O)O)[C@@](O)(CC(=O)O)C(=O)O [Compound 80] | 71 nM | > 1000 nM
CCCCCCCC(=O)CCCCCC/C=C/[C@H](C(=O)N[C@@H](Cc1ccc(-c2cnc(OC)nc2)cc1)C(=O)O)[C@@](O)(CC(=O)O)C(=O)O [Compound 81] | 8 nM | > 1000 nM
CCCCCCCC(=O)CCCCCC/C=C/[C@H](C(=O)N[C@@H](Cc1ccc(OCCCN)cc1)C(=O)O)[C@@](O)(CC(=O)O)C(=O)O [Compound 82] | 39 nM | > 1000 nM
CCCCCCCC(=O)CCCCCC/C=C/[C@H](C(=O)N[C@@H](Cc1ccc(OC2CCN(C)CC2)cc1)C(=O)O)[C@@](O)(CC(=O)O)C(=O)O [Compound 83] | 108 nM | > 1000 nM
CCCCCCCC(=O)CCCCCC/C=C/[C@H](C(=O)N[C@@H](Cc1ccc(OCCCN(C)C)cc1)C(=O)O)[C@@](O)(CC(=O)O)C(=O)O [Compound 84] | 43 nM | > 1000 nM
CCCCCCCC(=O)CCCCCC/C=C/[C@H](C(=O)N[C@@H](Cc1ccc(OCc2cccnc2)cc1)C(=O)O)[C@@](O)(CC(=O)O)C(=O)O [Compound 85] | 1 nM | > 1000 nM
CCCCCCCC(=O)CCCCCC/C=C/[C@H](C(=O)N[C@@H](Cc1ccc(OCCN2CCOCC2)cc1)C(=O)O)[C@@](O)(CC(=O)O)C(=O)O [Compound 86] | 7 nM | > 1000 nM
CCCCCCCC(=O)CCCCCC/C=C/[C@H](C(=O)N[C@@H](Cc1ccc(OCCN2CCNCC2)cc1)C(=O)O)[C@@](O)(CC(=O)O)C(=O)O [Compound 87] | 38 nM | > 1000 nM
CCCCCCCC(=O)CCCCCC/C=C/[C@H](C(=O)N[C@@H](Cc1ccc(OCCCNCc2cccnc2)cc1)C(=O)O)[C@@](O)(CC(=O)O)C(=O)O [Compound 88] | 18 nM | > 1000 nM
CCCCCCCC(=O)CCCCCC/C=C/[C@H](C(=O)N[C@@H](Cc1ccc(OCCCN2CCN(C)CC2)cc1)C(=O)O)[C@@](O)(CC(=O)O)C(=O)O [Compound 89] | 29 nM | > 1000 nM
CCCCCCCC(=O)CCCCCC/C=C/[C@H](C(=O)N[C@@H](Cc1ccc(N=[N+]=[N-])cc1)C(=O)O)[C@@](O)(CC(=O)O)C(=O)O [Compound 90] | 6 nM | > 1000 nM
CCCCCCCC(=O)CCCCCC/C=C/[C@H](C(=O)N[C@@H](Cc1ccc(CNC(=O)OCC2c3ccccc3-c3ccccc32)cc1)C(=O)O)[C@@](O)(CC(=O)O)C(=O)O [Compound 91] | 8 nM | > 1000 nM
CCCCCCCC(=O)CCCCCC/C=C/[C@H](C(=O)N[C@@H](Cc1ccc(NS(C)(=O)=O)cc1)C(=O)O)[C@@](O)(CC(=O)O)C(=O)O [Compound 92] | 2 nM | > 1000 nM
CCCCCCCC(=O)CCCCCC/C=C/[C@H](C(=O)N[C@@H](Cc1ccc(NC(C)=O)cc1)C(=O)O)[C@@](O)(CC(=O)O)C(=O)O [Compound 93] | 12 nM | > 1000 nM
CCCCCCCC(=O)CCCCCC/C=C/[C@H](C(=O)N[C@@H](Cc1ccc(CN)cc1)C(=O)O)[C@@](O)(CC(=O)O)C(=O)O [Compound 94] | 280 nM | > 1000 nM
CCCCCCCC(=O)CCCCCC/C=C/[C@H](C(=O)N[C@@H](Cc1ccc(NC(=N)N)cc1)C(=O)O)[C@@](O)(CC(=O)O)C(=O)O [Compound 95] | 395 nM | > 1000 nM
